According to ChEMBL document CHEMBL1134886, “Synthesis of [(2S,3S,4R)-3,4-dihydroxypyrrolidin-2-yl]-5-methylfuran-4-carboxylic acid derivatives: new leads as selective beta-galactosidase inhibitors” (Bioorg Med Chem Lett, 2002):
Active and inactive are the calls of the source. No cut-off for these calls is given here.

Tests used:
[1] = biological target: T1, Tissue alpha-L-fucosidase (Homo sapiens) (UniProt P04066); experiment: Compound was tested for Percent inhibition of alpha-L-Fucosidase from Human placenta at a dose of 1 mM
T1 sequence (whole entry): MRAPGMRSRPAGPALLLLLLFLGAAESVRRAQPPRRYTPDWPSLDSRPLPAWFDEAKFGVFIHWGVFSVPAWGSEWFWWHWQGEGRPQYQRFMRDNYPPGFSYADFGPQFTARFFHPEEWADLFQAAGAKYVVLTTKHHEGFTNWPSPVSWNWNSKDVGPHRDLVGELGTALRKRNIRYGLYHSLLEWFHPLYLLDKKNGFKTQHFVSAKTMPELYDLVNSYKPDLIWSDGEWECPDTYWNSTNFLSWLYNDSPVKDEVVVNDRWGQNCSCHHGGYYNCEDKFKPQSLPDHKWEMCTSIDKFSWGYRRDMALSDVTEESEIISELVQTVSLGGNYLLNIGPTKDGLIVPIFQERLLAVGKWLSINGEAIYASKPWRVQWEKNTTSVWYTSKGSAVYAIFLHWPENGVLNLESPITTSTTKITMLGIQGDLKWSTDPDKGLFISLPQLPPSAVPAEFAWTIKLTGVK

Aspergillus niger = experiment: Inhibitor concentration against Amyloglucosidases from Aspergillus niger was tested at a dose of 1 mM; NI means no inhibition
[2] = biological target: T2, Beta-galactosidase (Aspergillus niger) (UniProt P29853); experiment: Compound was tested for Percent inhibition of Beta-galactosidase from Aspergillus niger at a dose of 1 mM
T2 sequence (whole entry): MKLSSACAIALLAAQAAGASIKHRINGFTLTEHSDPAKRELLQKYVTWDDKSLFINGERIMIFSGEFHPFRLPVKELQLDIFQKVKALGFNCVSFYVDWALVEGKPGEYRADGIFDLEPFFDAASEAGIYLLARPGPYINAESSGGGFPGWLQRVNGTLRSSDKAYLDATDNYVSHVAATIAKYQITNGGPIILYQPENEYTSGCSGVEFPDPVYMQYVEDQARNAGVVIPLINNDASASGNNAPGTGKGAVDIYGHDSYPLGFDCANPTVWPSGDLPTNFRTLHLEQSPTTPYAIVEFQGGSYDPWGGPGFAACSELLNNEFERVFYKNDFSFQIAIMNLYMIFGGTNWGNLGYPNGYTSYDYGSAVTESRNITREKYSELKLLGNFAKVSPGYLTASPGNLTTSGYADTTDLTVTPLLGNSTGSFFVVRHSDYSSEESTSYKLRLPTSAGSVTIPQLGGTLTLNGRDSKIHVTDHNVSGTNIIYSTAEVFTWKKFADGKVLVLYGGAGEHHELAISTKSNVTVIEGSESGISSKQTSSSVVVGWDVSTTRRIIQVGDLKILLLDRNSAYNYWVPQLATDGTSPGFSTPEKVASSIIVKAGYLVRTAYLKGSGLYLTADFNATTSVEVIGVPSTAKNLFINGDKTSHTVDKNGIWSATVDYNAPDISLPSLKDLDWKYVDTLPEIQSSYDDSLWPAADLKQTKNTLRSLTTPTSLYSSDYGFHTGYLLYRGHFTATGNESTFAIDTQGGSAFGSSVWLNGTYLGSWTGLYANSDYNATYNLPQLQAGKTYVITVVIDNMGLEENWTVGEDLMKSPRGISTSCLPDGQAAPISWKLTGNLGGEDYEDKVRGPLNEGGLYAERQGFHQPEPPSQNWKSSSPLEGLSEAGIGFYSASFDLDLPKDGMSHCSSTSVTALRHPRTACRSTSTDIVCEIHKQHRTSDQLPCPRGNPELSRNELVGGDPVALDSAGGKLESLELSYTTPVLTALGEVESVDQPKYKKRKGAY

[3] = biological target: T3, Beta-galactosidase (Bos taurus) (UniProt Q58D55); experiment: Compound was tested for Percent inhibition of Beta-galactosidase from Bovine liver at a dose of 1 mM
T3 sequence (whole entry): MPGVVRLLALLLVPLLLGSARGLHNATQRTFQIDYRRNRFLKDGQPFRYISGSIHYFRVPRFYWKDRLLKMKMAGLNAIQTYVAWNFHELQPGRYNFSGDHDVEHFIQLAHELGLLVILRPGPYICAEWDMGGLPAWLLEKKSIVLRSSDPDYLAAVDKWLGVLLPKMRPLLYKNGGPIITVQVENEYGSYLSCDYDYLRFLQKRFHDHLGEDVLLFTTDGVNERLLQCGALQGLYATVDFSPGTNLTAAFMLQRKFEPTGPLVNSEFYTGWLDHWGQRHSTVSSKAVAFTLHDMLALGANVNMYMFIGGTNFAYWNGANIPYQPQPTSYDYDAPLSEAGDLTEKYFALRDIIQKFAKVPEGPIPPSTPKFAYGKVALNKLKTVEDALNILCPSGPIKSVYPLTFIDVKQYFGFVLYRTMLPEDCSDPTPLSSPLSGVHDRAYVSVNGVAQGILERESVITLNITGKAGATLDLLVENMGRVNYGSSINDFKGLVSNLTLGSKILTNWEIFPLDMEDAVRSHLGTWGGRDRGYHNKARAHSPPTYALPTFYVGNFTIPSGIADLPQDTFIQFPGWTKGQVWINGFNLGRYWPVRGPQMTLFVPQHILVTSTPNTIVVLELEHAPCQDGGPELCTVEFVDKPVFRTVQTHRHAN

Canavalia ensiformis = experiment: Compound was tested for Percent inhibition of alpha-Mannosidases from Jack beans at a dose of 1 mM
Prunus dulcis [4] = experiment: Inhibitor concentration against alpha-Mannosidases from Almond was tested at a dose of 1 mM; NI means no inhibition
[5] = biological target: alpha-galactosidase (Escherichia coli) (UniProt P06720); experiment: Inhibitor concentration against alpha-Galactosidase from Escherichia coli was tested at a dose of 1 mM; NI means no inhibition
Chain of alpha-galactosidase (Escherichia coli) (P06720 whole entry, looked up): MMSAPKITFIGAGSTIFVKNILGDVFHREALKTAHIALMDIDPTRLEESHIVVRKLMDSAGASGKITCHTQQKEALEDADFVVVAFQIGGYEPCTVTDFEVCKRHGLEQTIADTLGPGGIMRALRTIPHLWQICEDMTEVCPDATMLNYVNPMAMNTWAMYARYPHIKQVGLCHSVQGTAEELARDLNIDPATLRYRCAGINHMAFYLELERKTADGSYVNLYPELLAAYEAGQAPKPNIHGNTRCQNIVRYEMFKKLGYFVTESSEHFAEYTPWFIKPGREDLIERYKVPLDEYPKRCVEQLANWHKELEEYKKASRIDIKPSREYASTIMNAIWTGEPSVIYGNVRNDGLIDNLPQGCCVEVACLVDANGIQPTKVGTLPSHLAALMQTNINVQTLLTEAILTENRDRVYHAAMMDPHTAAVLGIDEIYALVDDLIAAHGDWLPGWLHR

[6] = biological target: Beta-galactosidase (Escherichia coli) (UniProt Q8VNN2); experiment: Inhibitor concentration against Beta-galactosidase from Escherichia coli was tested at a dose of 1 mM; NI means no inhibition
Chain of Beta-galactosidase (Escherichia coli) (Q8VNN2 whole entry, looked up): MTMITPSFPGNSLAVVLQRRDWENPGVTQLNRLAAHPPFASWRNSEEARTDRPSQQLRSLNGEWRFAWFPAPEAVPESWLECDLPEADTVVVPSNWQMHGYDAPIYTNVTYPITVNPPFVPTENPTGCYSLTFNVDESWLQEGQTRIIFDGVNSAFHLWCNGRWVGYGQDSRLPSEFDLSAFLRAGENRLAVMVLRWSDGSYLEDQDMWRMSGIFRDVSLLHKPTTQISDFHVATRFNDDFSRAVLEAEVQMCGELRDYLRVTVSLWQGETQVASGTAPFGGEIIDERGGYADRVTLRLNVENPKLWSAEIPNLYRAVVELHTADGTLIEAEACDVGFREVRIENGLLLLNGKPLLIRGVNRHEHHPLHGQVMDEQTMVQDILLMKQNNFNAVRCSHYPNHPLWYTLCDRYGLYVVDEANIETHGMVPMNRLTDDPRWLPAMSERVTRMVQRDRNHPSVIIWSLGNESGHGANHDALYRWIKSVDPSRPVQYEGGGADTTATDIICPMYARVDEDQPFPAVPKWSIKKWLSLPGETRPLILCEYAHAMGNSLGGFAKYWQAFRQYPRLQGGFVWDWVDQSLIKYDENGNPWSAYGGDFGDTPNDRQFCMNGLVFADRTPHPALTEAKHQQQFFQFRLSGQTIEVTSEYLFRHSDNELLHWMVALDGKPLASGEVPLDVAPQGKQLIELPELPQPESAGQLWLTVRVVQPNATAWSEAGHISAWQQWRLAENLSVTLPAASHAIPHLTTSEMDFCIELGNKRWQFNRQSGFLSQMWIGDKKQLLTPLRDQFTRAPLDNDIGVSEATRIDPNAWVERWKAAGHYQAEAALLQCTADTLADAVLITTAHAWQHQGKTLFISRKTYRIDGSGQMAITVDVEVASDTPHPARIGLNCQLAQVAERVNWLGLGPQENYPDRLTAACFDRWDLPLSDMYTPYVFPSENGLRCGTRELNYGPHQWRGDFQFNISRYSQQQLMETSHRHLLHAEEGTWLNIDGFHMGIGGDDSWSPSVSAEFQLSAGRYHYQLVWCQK

[7] = biological target: T2, Beta-galactosidase (Aspergillus niger); experiment: Inhibitor concentration against Beta-galactosidase from Aspergillus niger was tested at a dose of 1 mM; NI means no inhibition
Prunus dulcis [8] = experiment: Inhibitor concentration against alpha-Mannosidases from Almond was tested at a dose of 1 mM
[9] = biological target: Alpha-galactosidase (Coffea arabica) (UniProt Q42656); experiment: Compound was tested for Percent inhibition of Alpha-galactosidase from Coffee bean at a dose of 1 mM
Chain of Alpha-galactosidase (Coffea arabica) (Q42656 whole entry, looked up): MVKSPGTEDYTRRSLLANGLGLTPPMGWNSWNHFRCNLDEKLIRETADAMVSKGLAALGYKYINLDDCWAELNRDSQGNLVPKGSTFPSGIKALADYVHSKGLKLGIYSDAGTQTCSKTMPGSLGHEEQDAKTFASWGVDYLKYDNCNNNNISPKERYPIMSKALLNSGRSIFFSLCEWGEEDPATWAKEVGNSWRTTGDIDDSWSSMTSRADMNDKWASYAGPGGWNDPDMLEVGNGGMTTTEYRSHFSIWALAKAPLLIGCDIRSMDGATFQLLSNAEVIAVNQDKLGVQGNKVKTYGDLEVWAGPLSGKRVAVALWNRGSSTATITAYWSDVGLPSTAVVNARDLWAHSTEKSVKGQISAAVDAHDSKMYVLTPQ

Rhizopus [10] = experiment: Inhibitor concentration against Amyloglucosidases from Rhizopus mold was tested at a dose of 1 mM; NI means no inhibition
[11] = biological target: Beta-galactosidase (Escherichia coli) (UniProt Q8VNN2); experiment: Inhibitor concentration against Beta-galactosidase from was Escherichia coli tested at a dose of 1 mM; NI means no inhibition
Beta-galactosidase [12] = biological target: T4, Beta-galactosidase (Aspergillus niger, UniProt P29853); experiment: Inhibitor concentration against Beta-galactosidase from Aspergillus niger was tested at a dose of 1 mM
T4 sequence (P29853 whole entry): T2 sequence (whole entry)

[13] = biological target: T2, Beta-galactosidase (Aspergillus niger); experiment: Compound was tested for Percent inhibition of Beta-galactosidase from Aspergillus niger; conditions: concentration not given here
Beta-galactosidase [14] = biological target: T5, Beta-galactosidase (Bos taurus, UniProt Q58D55); experiment: Inhibitor concentration against Beta-galactosidase from Bovine liver
T5 sequence (Q58D55 whole entry): T3 sequence (whole entry)

Prunus dulcis [15] = experiment: Inhibitor concentration against alpha-Mannosidases from Almonds was tested at a dose of 1 mM
Rhizopus [16] = experiment: Compound was tested for Percent inhibition of Amyloglucosidases from Rhizopus mold; NI means no inhibition
[17] = biological target: Beta-galactosidase (Escherichia coli) (UniProt Q8VNN2); experiment: Compound was tested for Percent inhibition of Beta-galactosidase from Escherichia coli at a dose of 1 mM
Prunus dulcis [18] = experiment: Inhibition of alpha-Mannosidases from Almond was tested at a dose of 1 mM; NI means no inhibition
[19] = biological target: Alpha-galactosidase (Coffea arabica) (UniProt Q42656); experiment: Inhibitor concentration against Alpha-galactosidase from Coffee beans was tested at a dose of 1 mM; NI means no inhibition
Beta-galactosidase [20] = biological target: T4, Beta-galactosidase; experiment: Inhibitor concentration against Beta-galactosidase from Aspergillus niger
Beta-galactosidase [21] = biological target: T4, Beta-galactosidase; experiment: Inhibition constant(Non competitive) of compound against Beta-galactosidase from Aspergillus niger
Prunus dulcis [22] = experiment: Inhibition of alpha-Mannosidases from Almonds was tested at a dose of 1 mM
[23] = biological target: Alpha-galactosidase (Coffea arabica) (UniProt Q42656); experiment: Compound showed Non competitive inhibition against Alpha-galactosidase from coffee bean; NI means no inhibition at a dose of 1 mM

SMILES: CCOC(=O)c1cc([C@@H]2NC[C@@H](O)[C@H]2O)oc1C
- inhibition [1]: 76%
- inhibition (Aspergillus niger): inactive
- inhibition [2]: 80%
- inhibition [3]: 57%
- inhibition (Canavalia ensiformis): 38%
- inhibition (Prunus dulcis [4]): inactive
- inhibition [5]: inactive

SMILES: Cc1oc([C@@H]2NC[C@@H](O)[C@H]2O)cc1C(=O)NC(C)C
- inhibition (Aspergillus niger): 23%
- inhibition [6]: inactive
- inhibition [7]: inactive
- inhibition [3]: 38%
- inhibition (Prunus dulcis [8]): 9%
- inhibition [9]: 29%

SMILES: Cc1oc([C@H]2NC[C@@H](O)[C@H]2O)cc1C(=O)NC(C)C
- inhibition [1]: 39%
- inhibition (Aspergillus niger): inactive
- inhibition (Rhizopus [10]): inactive
- inhibition [11]: inactive
- IC50 (Beta-galactosidase [12]): 250 µM
- inhibition [13]: 79%
- inhibition [3]: 49%
- IC50 (Beta-galactosidase [14]): 1000 µM

SMILES: CCN(CC)C(=O)c1cc([C@@H]2NC[C@@H](O)[C@H]2O)oc1C
- inhibition [1]: 91%
- inhibition (Aspergillus niger): inactive
- inhibition [6]: inactive
- inhibition [3]: 58%
- inhibition (Canavalia ensiformis): 27%
- inhibition (Prunus dulcis [15]): 31%

SMILES: CCOC(=O)c1cc([C@H]2NC[C@@H](O)[C@H]2O)oc1C
- inhibition (Aspergillus niger): inactive
- inhibition (Rhizopus [16]): inactive
- inhibition [17]: 83%
- inhibition [2]: 99%
- inhibition [3]: 78%
- inhibition (Canavalia ensiformis): 49%
- inhibition (Prunus dulcis [18]): 37%
- Ki [19]: Not Active

SMILES: CCN(CC)C(=O)c1cc([C@H]2NC[C@@H](O)[C@H]2O)oc1C
- inhibition (Aspergillus niger): inactive
- inhibition (Rhizopus [16]): inactive
- inhibition [17]: 33%
- IC50 (Beta-galactosidase [20]): 28 µM
- inhibition [2]: 96%
- inhibition [3]: 90%
- IC50 (Beta-galactosidase [14]): 42 µM
- Ki (Beta-galactosidase [21]): 30 µM
- inhibition (Canavalia ensiformis): 37%
- inhibition (Prunus dulcis [22]): 38%
- inhibition [23]: No inhibition
